Laboratory results published in the CATMoS acute toxicity set (Mansouri et al. 2021).
Where a SMILES comes first, the peptide text is derived from it.

Experiment: GHS categories as the set defines them, by LD50: 1 up to 5, 2 up to 50, 3 up to 300, 4 up to 2000, 5 above 2000 mg/kg
Conditions: rat; in vivo; po

SMILES	GHS category
O=C(Nc1ccccc1)N(Cc1ccc(Cl)cc1)C1CCCC1	5
O=C(c1ccccc1)C1CCCCC1	5
COc1ccc(N(CCCC(=O)O)C(=O)c2ccc(Cl)cc2)c(OC)c1	4
CCCCCCCC(=O)O[C@H]1CO[C@H]2[C@@H]1OC[C@H]2OC(=O)CCCCCCC	5
CNC(=O)C(=NNc1ccc(OC)cc1)C(C)=O	5
CCc1oc2ccccc2c1C(=O)c1ccc(O)cc1	5
c1ccc2oc(C3(Cn4ccnc4)OCCCO3)cc2c1	4
C=CC(=O)OCCCOCC(C)(C)COCCCOC(=O)C=C	5
CC(C)=CCN(CC=C(C)C)CCC(CCN(CC=C(C)C)CC=C(C)C)(C(N)=O)c1cccc2ccccc12	4
CCCCOC(=O)c1ccc(C(=O)OCCCC)cc1	5
CCCc1nc2ccnn2c(NCCN2CCOCC2)c1Cc1ccc(-c2ccccc2-c2nn[nH]n2)cc1	4
CC(=O)N(C)C(=O)Oc1cccc2c1OC1(CCCCC1)O2	4
CNC[C@@H]1CC[C@@H](N)[C@@H](O[C@H]2[C@H](O)[C@@H](O[C@H]3OC[C@](C)(O)[C@H](NC)[C@H]3O)[C@H](N)C[C@@H]2N)O1	5
NCC(=O)N[C@@H](CCC(N)=O)C(=O)O (H-Gly-Gln-OH)	5
Cc1ccc(C(C)C)c(OC(=O)c2ccccc2Nc2cccc(C)c2C)c1	5
CCCCC(CC)C(c1ccc(O)cc1)c1ccc(O)cc1 (centres undefined)	4
CCCCOC(=O)C(C)C	5
CCCCCCCCCCCCCCC(C)c1cc(C)cc(C)c1O (centres undefined)	5
Cc1cc(C(C)(C)C)c(O)c(C)c1CC#N	5
C=CC(=O)OCCCOc1ccc(C(=O)Oc2ccc(OC(=O)c3ccc(OCCCOC(=O)C=C)cc3)c(C)c2)cc1	5
CCN(Cc1cccc(S(=O)(=O)O)c1)c1ccc(C(=C2C=CC(=[N+](CC)Cc3cccc(S(=O)(=O)O)c3)C=C2)c2ccc(O)cc2S(=O)(=O)[O-])cc1	5

SMILES	GHS category
CC=CC=CCOC(=O)CCC	5
O=C1OC(=O)c2c(Br)c(Br)c(Br)c(Br)c21	5
CC/C=C\CCOC(=O)C(C)C	5
CCCCCCCCC=CCCCCCCCCCCCC(=O)NCCCN(C)C	5
COc1ccc(C2(c3ccc(OC)c(C)c3)NC(=O)NC2=O)cc1 (centres undefined)	5
COC(=O)c1ccccc1S(=O)(=O)NC(=O)Nc1nc(C)nc(OC)n1	5
CCCCOC(=O)c1ccccc1OC(N)=O	5
COc1ccc(C2c3ccc(OC)cc3CCN2c2ccccc2)cc1 (centres undefined)	4
COc1ccc2c(c1)CCN(c1cccc(F)c1)C2c1cccc(F)c1 (centres undefined)	4
[C]	5
CC1=C(C(=O)O)N2C(=O)[C@@H](NC(=O)C(N)C3=CCC=CC3)[C@H]2SC1 (some centres undefined)	5
CC1CCN(c2nc3cc(Cl)ccc3o2)CCN1 (centres undefined)	4
CC1CCC(C(C)C)C(OC(=O)C2OC(O)CS2)C1 (centres undefined)	5
C[N+](C)(C)NCCC(=O)[O-]	5
COC[C@H]1CO[C@@](Cn2ccnc2)(c2cc3cc(Cl)cc(Cl)c3o2)O1	4
CCCCCCCCOC(=O)CCc1cc(C(C)(C)C)c(O)c(C(C)(C)C)c1	5
CC(=O)Oc1c(I)cc(I)cc1C(=O)Nc1ccc(Cl)cc1	5
CC(=O)[C@@]1(O)CC[C@H]2[C@@H]3C=C(Cl)C4=CC(=O)CC[C@]4(C)[C@H]3CC[C@@]21C	5
CCCC(=O)CC(=O)OCC	4
CC(C)=CCCC(C)=CC1OCCO1	5
CC(C)(C)CC(C)(C)c1cc(-n2nc3ccccc3n2)c(O)c(C(C)(C)c2ccccc2)c1	5

SMILES	GHS category
CCCOC(=O)c1ccc(O)cc1	5
O=C1CC(Nc2ccc(Cl)cc2Cl)=NN1c1c(Cl)cc(Cl)cc1Cl	5
COc1ccc(OC)c(C(O)CNC(=O)CN)c1 (centres undefined)	2
CCc1cccc(CC)c1NC(=O)c1sc(N)nc1C	4
N=c1ccn2c(n1)O[C@H]1[C@H](O)[C@@H](CO)O[C@H]12	5
CCCc1c(Cc2ccc(-c3ccccc3-c3nn[nH]n3)cc2)c(=O)nc2nc(SC)[nH]n12	4
COc1ccc(CCN2CCC(Nc3nc4ccccc4n3Cc3ccc(F)cc3)CC2)cc1	5
CCO[Si](C)(CCCCl)OCC	5
CCOC(=O)C(=O)Nc1cc(SCCOC)ncn1	4
C=CCCCC(C)C	5
CCCCCCCCCCCCCCCC(=O)OCCCCCCCCCCCCCCCC(C)C	5
Cc1cc(CCC(=O)OCCOCCOCCOC(=O)CCc2cc(C)c(O)c(C(C)(C)C)c2)cc(C(C)(C)C)c1O	5
CC(=O)c1c(C)c([N+](=O)[O-])c(C(C)(C)C)c([N+](=O)[O-])c1C	5
CCOC(=O)C1=C(C)C=CCC1(C)C	5
CC(C)C(=O)OOC(C)(C)C	5
COC(=O)C1=C(C)NC(C)=C(C(=O)OC2COC3C(O)COC23)C1c1cccc([N+](=O)[O-])c1 (centres undefined)	5
CC1(C)S[C@@H]2[C@H](NC(=O)C(N)c3ccccc3)C(=O)N2[C@H]1C(=O)OC1OC(=O)c2ccccc21 (some centres undefined)	4
Cc1cccc2ncc(C(=O)Nc3ccc(Cl)cc3)c(=O)n12	3
COc1ccc(C2(c3ccc(OC)c(Cl)c3)NC(=O)NC2=O)cc1 (centres undefined)	5
CC1Oc2cc(C(=O)c3ccccc3)ccc2NC1=O (centres undefined)	5
CCCCCCCCCC(=O)N(C)C	5

SMILES	GHS category
Clc1cccc(Cl)c1Nc1ccccc1	5
O=[N+]([O-])c1ccc2c(c1)COP(=S)(N1CCCCC1)O2 (centres undefined)	3
COP(=O)(OC)Oc1ccc(Cl)cc1Cl	3
CC[C@H]1CO[C@@](Cn2ccnc2)(c2cc3cc(Cl)cc(Cl)c3o2)O1	4
CCCc1nc2ccnn2c(N)c1Cc1ccc(-c2ccccc2-c2nn[nH]n2)cc1	4
CN1C2CCC1CC(OS(C)(=O)=O)C2 (centres undefined)	4
CCCCCCCCCCCCCCCC(=O)OC[C@@H](O)[C@H]1OC[C@H](O)[C@H]1O	5
CNC(=O)c1sc(-c2ccc(OC)cc2)nc1C	5
CC(C#N)c1cccc(C(=O)Cl)c1 (centres undefined)	5
C=CCCCCC=C	5
C[C@@H](O)[C@H]1C(=O)N2C(C(=O)O)=C(SCCNC=N)C[C@H]12	5
CC(C)c1[nH]c2ccccc2c1C(=O)c1cccnc1	5
Cc1ccc(C(=O)c2ccc(CC(=O)NCC(=O)Nc3cccc(Cl)c3)n2C)cc1	4
Cc1ccc(S(=O)(=O)NCCCCCC(=O)O)cc1	5
CNCc1ccc(CSCCN/C(=N/S(C)(=O)=O)NCC(O)c2ccc(O)cc2)o1 (centres undefined)	5
O=C(COCCOCCOCC(=O)Nc1c(I)cc(I)c(C(=O)O)c1I)Nc1c(I)cc(I)c(C(=O)O)c1I	5
CC1CC(OC(=O)c2ccccc2O)CC(C)(C)C1 (centres undefined)	5
CC(CC=O)c1ccccc1 (centres undefined)	5
c1ccc2oc(C3(Cn4cncn4)OCCO3)cc2c1	4
CCC(=O)OC/C=C(\C)CCC=C(C)C	5
c1ccc(C2=NN(c3ccccc3)C(c3ccccc3)C2)cc1 (centres undefined)	5
